Reference: patent publication US11535621B2, “Heterobicyclic amides as inhibitors of CD38” (Ribon Therapeutics, Inc., priority 2019, dated 2022)

Biological target: Human CD38 (Homo sapiens (Human), UniProt P28907)
Assay: CD38 enzyme assay
Assay type: biochemical
Conditions: 2 nM CD38, NAD+ substrate, absorbance at 405 nm
Procedure, shortened: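 IC50 values come from fitting % inhibition against compound concentration with a 4-parameter logistic, or a 3-parameter fit with top/bottom fixed at 100/0 or Hill at 1. Inhibition is scaled between DMSO wells and positive-control wells treated with a quinolinone CD38 inhibitor.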

Chain of Human CD38 (P28907 whole entry): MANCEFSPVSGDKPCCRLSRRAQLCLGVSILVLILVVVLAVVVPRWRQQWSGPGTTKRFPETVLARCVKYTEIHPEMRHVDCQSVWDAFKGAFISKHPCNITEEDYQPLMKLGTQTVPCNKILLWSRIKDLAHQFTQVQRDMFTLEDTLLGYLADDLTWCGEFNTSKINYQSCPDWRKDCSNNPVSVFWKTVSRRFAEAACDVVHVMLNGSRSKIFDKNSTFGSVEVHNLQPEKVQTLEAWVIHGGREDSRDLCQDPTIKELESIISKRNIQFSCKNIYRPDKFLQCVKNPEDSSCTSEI

IC50 | SMILES
10 to 100 nM | CN(C)CCOc1ccc(NC(=O)c2nc(-n3ccnc3)cc3cn[nH]c23)cn1 [Example 223, N-(6-(2-(dimethylamino)ethoxy)pyridin-3-yl)-5-(1H-imidazol-1-yl)-1H-pyrazolo[3,4-c]pyridine-7-carboxamide]
10 to 100 nM | COCCO[C@H]1CC[C@H](NC(=O)c2nc(-n3ccnc3)nc3nc[nH]c23)CC1 [Example 14, 2-(1H-Imidazol-1-yl)-N-((1r,4r)-4-(2-methoxyethoxy)cyclohexyl)-7H-purine-6-carboxamide]
10 to 100 nM | O=C(N[C@H]1CC[C@H](CNCC(F)(F)F)CC1)c1nc(-n2ccnc2)nc2cn[nH]c12 [Example 271]
10 to 100 nM | CN(C)CCOc1ccc(NC(=O)c2nc(-n3ccnc3)nc3cc[nH]c23)nc1 [Example 129]
< 10 nM | N#CC[C@H]1CC[C@H](NC(=O)c2nc(-n3ccnc3)cc3cn[nH]c23)CC1 [Example 219, N-((1r,4r)-4-(cyanomethyl)cyclohexyl)-5-(1H-imidazol-1-yl)-1H-pyrazolo[3,4-c]pyridine-7-carboxamide]
100 to 1000 nM | O=C(NCc1c(F)cccc1C(F)(F)F)c1cc(-n2ccnc2)cc2cc[nH]c12 [Example 5, N-(2-Fluoro-6-(trifluoromethyl)benzyl)-5-(1H-imidazol-1-yl)-1H-indole-7-carboxamide]
10 to 100 nM | O=C(N[C@H]1CC[C@H](NC2COC2)CC1)c1nc(-n2ccnc2)nc2cc[nH]c12 [Example 216, 2-(1H-imidazol-1-yl)-N-((1r,4r)-4-(oxetan-3-ylamino)cyclohexyl)-5H-pyrrolo[3,2-d]pyrimidine-4-carboxamide]
10 to 100 nM | COCCO[C@H]1CC[C@H](NC(=O)c2nc(-n3ccnc3)nc3ccsc23)CC1 [Example 18, 2-(1H-Imidazol-1-yl)-N-((1r,4r)-4-(2-methoxyethoxy)cyclohexyl)thieno[3,2-d]pyrimidine-4-carboxamide]
100 to 1000 nM | COCCO[C@H]1CC[C@H](NC(=O)c2nc(-n3ccnc3)nc3ncsc23)CC1 [Example 25, 5-(1H-Imidazol-1-yl)-N-((1r,4r)-4-(2-methoxyethoxy)cyclohexyl)thiazolo[4,5-d]pyrimidine-7-carboxamide]
< 10 nM | COCCOc1ccc(NC(=O)c2nc(-n3ccnc3)nc3cc[nH]c23)cc1F [Example 131]
< 10 nM | O=C(N[C@H]1CC[C@H](OCCC(F)(F)F)CC1)c1nc(-n2ccnc2)cc2cn[nH]c12 [Example 249, 5-(1H-imidazol-1-yl)-N-((1r,4r)-4-(3,3,3-trifluoropropoxy)cyclohexyl)-1H-pyrazolo[3,4-c]pyridine-7-carboxamide]
< 10 nM | O=C(NC1CCCCC1)c1nc(-n2ccnc2)nc2cc[nH]c12 [Example 59, N-cyclohexyl-2-(1H-Imidazol-1-yl)-5H-pyrrolo[3,2-d]pyrimidine-4-carboxamide]
< 10 nM | O=C(Nc1ccc(Cl)nc1)c1nc(-n2ccnc2)nc2cc[nH]c12 [Example 137]
< 10 nM | CO[C@]1(C)CC[C@@H](NC(=O)c2nc(-n3ccnc3)nc3cc[nH]c23)CC1 [Example 128a, 2-(1H-imidazol-1-yl)-N-((1r,4r)-4-methoxy-4-methylcyclohexyl)-5H-pyrrolo[3,2-d]pyrimidine-4-carboxamide]
100 to 1000 nM | CC(C)(N[C@H]1CC[C@@H](NC(=O)c2nc(-n3ccnc3)nc3cn[nH]c23)CC1)C(F)(F)F [Example 277, 5-(1H-imidazol-1-yl)-N-((1s,4s)-4-((1,1,1-trifluoro-2-methylpropan-2-yl)amino)cyclohexyl)-1H-pyrazolo[4,3-d]pyrimidine-7-carboxamide]
< 10 nM | COc1ccc(NC(=O)c2nc(-n3ccnc3)nc3cc[nH]c23)cn1 [Example 85, 2-(1H-Imidazol-1-yl)-N-(6-methoxypyridin-3-yl)-5H-pyrrolo[3,2-d]pyrimidine-4-carboxamide]
10 to 100 nM | COCCOc1ncc(NC(=O)c2nc(-n3ccnc3)nc3cc[nH]c23)cn1 [Example 165]
10 to 100 nM | O=C(NCc1c(F)cccc1C(F)(F)F)c1cc(-n2ccnc2)nc2cc[nH]c12 [Example 44, N-(2-Fluoro-6-(trifluoromethyl)benzyl)-5-(1H-imidazol-1-yl)-1H-pyrrolo[3,2-b]pyridine-7-carboxamide]
< 10 nM | O=C(Nc1cccnc1)c1nc(-n2ccnc2)nc2cc[nH]c12 [Example 83, 2-(1H-Imidazol-1-yl)-N-(pyridin-3-yl)-5H-pyrrolo[3,2-d]pyrimidine-4-carboxamide]
< 10 nM | N#C[C@H]1CC[C@H](NC(=O)c2nc(-n3ccnc3)nc3cc[nH]c23)CC1 [Example 148]

IC50 | SMILES
< 10 nM | O=C(N[C@H]1CC[C@](O)(C(F)(F)F)CC1)c1nc(-n2ccnc2)nc2cc[nH]c12 [Example 120a, N-((1s,4s)-4-hydroxy-4-(trifluoromethyl)cyclohexyl)-2-(1H-imidazol-1-yl)-5H-pyrrolo[3,2-d]pyrimidine-4-carboxamide]
10 to 100 nM | O=C(N[C@H]1CC[C@@](O)(C(F)(F)F)CC1)c1nc(-n2ccnc2)nc2cc[nH]c12 [Example 120b, N-((1r,4r)-4-hydroxy-4-(trifluoromethyl)cyclohexyl)-2-(1H-imidazol-1-yl)-5H-pyrrolo[3,2-d]pyrimidine-4-carboxamide]
10 to 100 nM | O=C(NC1CCC(F)(F)CC1)c1nc(-n2ccnc2)nc2nc[nH]c12 [Example 152]
< 10 nM | CC(=O)N1Cc2ccc(NC(=O)c3nc(-n4ccnc4)cc4cn[nH]c34)cc2C1 [Example 237, N-(2-acetylisoindolin-5-yl)-5-(1H-imidazol-1-yl)-1H-pyrazolo[3,4-c]pyridine-7-carboxamide]
< 10 nM | C[C@]1(NCC(F)(F)F)CC[C@@H](NC(=O)c2nc(-n3ccnc3)cc3cn[nH]c23)CC1 [Example 239, 5-(1H-imidazol-1-yl)-N-((1s,4s)-4-methyl-4-((2,2,2-trifluoroethyl)amino)cyclohexyl)-1H-pyrazolo[3,4-c]pyridine-7-carboxamide]
< 10 nM | CC(=O)NC[C@H]1CC[C@H](NC(=O)c2nc(-n3ccnc3)nc3cc[nH]c23)CC1 [Example 114, N-((1r,4r)-4-(acetamidomethyl)cyclohexyl)-2-(1H-imidazol-1-yl)-5H-pyrrolo[3,2-d]pyrimidine-4-carboxamide]
< 10 nM | O=C(Nc1ccccc1Cl)c1nc(-n2ccnc2)nc2cc[nH]c12 [Example 89, N-(2-Chlorophenyl)-2-(1H-imidazol-1-yl)-5H-pyrrolo[3,2-d]pyrimidine-4-carboxamide]
< 10 nM | CC(C)(C#N)c1ccc(NC(=O)c2nc(-n3ccnc3)nc3cc[nH]c23)cc1 [Example 118, N-[4-(1-cyano-1-methyl-ethyl)phenyl]-2-imidazol-1-yl-5H-pyrrolo[3,2-d]pyrimidine-4-carboxamide]
100 to 1000 nM | COCCO[C@H]1CC[C@H](NC(=O)c2nc(-c3cncs3)cc3cn[nH]c23)CC1 [Example 21, N-((1r,4r)-4-(2-Methoxyethoxy)cyclohexyl)-5-(thiazol-5-yl)-1H-pyrazolo[3,4-c]pyridine-7-carboxamide]
< 10 nM | O=C(N[C@H]1CC[C@H](CCO)CC1)c1nc(-n2ccnc2)nc2cc[nH]c12 [Example 200, N-((1r,4r)-4-(2-hydroxyethyl)cyclohexyl)-2-(1H-imidazol-1-yl)-5H-pyrrolo[3,2-d]pyrimidine-4-carboxamide]
100 to 1000 nM | O=C(N[C@H]1CC[C@@H](NCCC(F)F)CC1)c1nc(-n2ccnc2)nc2cc[nH]c12 [Example 181]
10 to 100 nM | C[C@](O)(C(=O)NC1CCC(NC(=O)c2nc(-n3ccnc3)nc3cc[nH]c23)CC1)C(F)(F)F (stereo partly drawn) [Example 127b, 2-(1H-imidazol-1-yl)-N-((1R,4r)-4-((S)-3,3,3-trifluoro-2-hydroxy-2-methylpropanamido)cyclohexyl)-5H-pyrrolo[3,2-d]pyrimidine-4-carboxamide]
100 to 1000 nM | O=C(NCc1c(F)cccc1C(F)(F)F)c1cc(-c2cncs2)cc2nc[nH]c12 [Example 3, N-[[2-Fluoro-6-(trifluoromethyl)phenyl]methyl]-6-thiazol-5-yl-3H-benzimidazole-4-carboxamide]
10 to 100 nM | CNC(=O)[C@H]1CC[C@H](NC(=O)c2nc(-n3ccnc3)nc3cn[nH]c23)CC1 [Example 242, 5-(1H-imidazol-1-yl)-N-((1r,4r)-4-(methylcarbamoyl)cyclohexyl)-1H-pyrazolo[4,3-d]pyrimidine-7-carboxamide]
10 to 100 nM | O=C(Nc1ccc(OCCN2CCCC2)nc1)c1nc(-n2ccnc2)cc2cn[nH]c12 [Example 203, 5-(1H-imidazol-1-yl)-N-(6-(2-(pyrrolidin-1-yl)ethoxy)pyridin-3-yl)-1H-pyrazolo[3,4-c]pyridine-7-carboxamide]
10 to 100 nM | CC(C)NC(=O)c1nc(-n2ccnc2)nc2cc[nH]c12 [Example 93, 2-(1H-Imidazol-1-yl)-N-isopropyl-5H-pyrrolo[3,2-d]pyrimidine-4-carboxamide]
10 to 100 nM | CN(CCC(F)(F)F)[C@H]1CC[C@H](NC(=O)c2nc(-n3ccnc3)nc3cc[nH]c23)CC1 [Example 110, 2-(1H-imidazol-1-yl)-N-((1r,4r)-4-(methyl(3,3,3-trifluoropropyl)amino)cyclohexyl)-5H-pyrrolo[3,2-d]pyrimidine-4-carboxamide]
10 to 100 nM | O=C(N[C@@H]1CCNC[C@@H]1F)c1nc(-n2ccnc2)nc2cc[nH]c12 [Example 123a, N-((3S,4R)-3-fluoropiperidin-4-yl)-2-(1H-imidazol-1-yl)-5H-pyrrolo[3,2-d]pyrimidine-4-carboxamide]
< 10 nM | CC(C)(O)[C@H]1CC[C@H](NC(=O)c2nc(-n3ccnc3)nc3cn[nH]c23)CC1 [Example 182, N-((1r,4r)-4-(2-hydroxypropan-2-yl)cyclohexyl)-5-(1H-imidazol-1-yl)-1H-pyrazolo[4,3-d]pyrimidine-7-carboxamide]

SMILES | IC50
CC(C)[C@](C)(O)COC1CCC(NC(=O)c2nc(-n3ccnc3)nc3cc[nH]c23)CC1 (stereo partly drawn) [Example 126b, N-((1R,4r)-4-((S)-2-hydroxy-2,3-dimethylbutoxy)cyclohexyl)-2-(1H-imidazol-1-yl)-5H-pyrrolo[3,2-d]pyrimidine-4-carboxamide] | 10 to 100 nM
